Source: ChEMBL document CHEMBL4421717, “Antagonists and agonists of bitter taste receptors and uses thereof” (2012)
Activity calls are given as the source filed them. The rule behind the calls is not given here.

Legend:
Type in all cases: functional, cell-based
[1] = biological target: T1, Taste receptor type 2 member 50 (Homo sapiens) (UniProt P59544); assay: Activity at recombinant human N-terminal rat ST3 receptor-fused TAS2R50 expressed in HEK293T cells co-expressing Galpha16gust44 assessed as effect on andrographolide-induced intracellular calcium level at 100 uM by FLIPR assay
T1 sequence (whole entry): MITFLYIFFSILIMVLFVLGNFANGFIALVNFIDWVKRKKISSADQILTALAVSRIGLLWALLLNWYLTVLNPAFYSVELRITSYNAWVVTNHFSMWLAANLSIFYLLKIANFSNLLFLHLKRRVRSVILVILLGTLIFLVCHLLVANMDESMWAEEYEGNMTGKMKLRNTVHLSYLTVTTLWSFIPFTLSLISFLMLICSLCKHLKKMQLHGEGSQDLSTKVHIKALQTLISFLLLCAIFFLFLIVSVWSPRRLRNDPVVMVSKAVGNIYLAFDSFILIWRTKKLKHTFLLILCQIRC

[2] = biological target: T2, Taste receptor type 2 member 10 (Homo sapiens) (UniProt Q9NYW0); assay: Agonist activity at recombinant human N-terminal rat ST3 receptor-fused TAS2R10 expressed in HEK293T cells co-expressing Galpha16gust44 assessed as effect on intracellular calcium level at 100 uM by FLIPR assay
T2 sequence (whole entry): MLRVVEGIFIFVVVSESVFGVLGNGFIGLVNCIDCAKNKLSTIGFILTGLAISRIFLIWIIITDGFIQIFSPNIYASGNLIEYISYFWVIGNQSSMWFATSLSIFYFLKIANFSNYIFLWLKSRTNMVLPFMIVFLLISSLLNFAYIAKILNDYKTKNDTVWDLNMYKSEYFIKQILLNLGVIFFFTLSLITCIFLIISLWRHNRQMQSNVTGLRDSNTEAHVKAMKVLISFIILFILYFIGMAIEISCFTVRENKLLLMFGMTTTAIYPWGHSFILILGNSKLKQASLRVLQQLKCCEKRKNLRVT

[3] = biological target: T3, Taste receptor type 2 member 14 (Homo sapiens) (UniProt Q9NYV8); assay: Agonist activity at recombinant human N-terminal rat ST3 receptor-fused TAS2R14 expressed in HEK293T cells co-expressing Galpha16gust44 assessed as effect on intracellular calcium level at 100 uM by FLIPR assay
T3 sequence (whole entry): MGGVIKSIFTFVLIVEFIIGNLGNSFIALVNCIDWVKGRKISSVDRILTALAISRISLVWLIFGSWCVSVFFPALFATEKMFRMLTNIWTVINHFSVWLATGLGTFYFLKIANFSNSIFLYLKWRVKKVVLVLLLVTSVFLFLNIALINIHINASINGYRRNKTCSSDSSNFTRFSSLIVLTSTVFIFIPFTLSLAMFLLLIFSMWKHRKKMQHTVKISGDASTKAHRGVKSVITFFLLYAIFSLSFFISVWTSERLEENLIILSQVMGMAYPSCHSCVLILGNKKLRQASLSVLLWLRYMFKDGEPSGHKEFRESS

[4] = biological target: T4, Taste receptor type 2 member 46 (Homo sapiens, UniProt P59540); assay: Antagonist activity at recombinant human N-terminal rat ST3 receptor-fused TAS2R46 expressed in HEK293T cells co-expressing Galpha16gust44 assessed as inhibition of 3 uM strychnine-induced intracellular calcium level 100 uM by FLIPR assay
T4 sequence (P59540 whole entry): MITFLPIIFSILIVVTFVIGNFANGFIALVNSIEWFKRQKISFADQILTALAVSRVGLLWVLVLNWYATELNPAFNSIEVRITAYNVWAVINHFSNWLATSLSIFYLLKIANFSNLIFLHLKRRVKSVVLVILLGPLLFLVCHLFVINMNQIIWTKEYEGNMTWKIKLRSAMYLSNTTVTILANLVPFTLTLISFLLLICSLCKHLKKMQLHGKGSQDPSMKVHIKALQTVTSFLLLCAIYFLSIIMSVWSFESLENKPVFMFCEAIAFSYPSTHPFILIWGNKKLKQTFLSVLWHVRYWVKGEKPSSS

[5] = biological target: T3, Taste receptor type 2 member 14 (Homo sapiens); assay: Activity at recombinant human N-terminal rat ST3 receptor-fused TAS2R14 expressed in HEK293T cells co-expressing Galpha16gust44 assessed as effect on aristolochic acids-induced intracellular calcium level at 100 uM by FLIPR assay
[6] = biological target: T5, Taste receptor type 2 member 20 (Homo sapiens) (UniProt P59543); assay: Activity at recombinant human N-terminal rat ST3 receptor-fused TAS2R49 expressed in HEK293T cells co-expressing Galpha16gust44 assessed as effect on cromolyn-induced intracellular calcium level at 100 uM by FLIPR assay
T5 sequence (whole entry): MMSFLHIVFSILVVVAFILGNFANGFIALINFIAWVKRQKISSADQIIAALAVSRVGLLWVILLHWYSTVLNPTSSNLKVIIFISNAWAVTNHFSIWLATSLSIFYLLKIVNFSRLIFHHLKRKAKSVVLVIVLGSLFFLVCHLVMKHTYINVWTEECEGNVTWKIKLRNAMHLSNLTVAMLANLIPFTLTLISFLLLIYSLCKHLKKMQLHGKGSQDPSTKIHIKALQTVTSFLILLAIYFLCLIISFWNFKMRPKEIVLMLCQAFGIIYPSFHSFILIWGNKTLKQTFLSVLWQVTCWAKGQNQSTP

[7] = biological target: T6, Taste receptor type 2 member 8 (Homo sapiens) (UniProt Q9NYW2); assay: Activity at recombinant human N-terminal rat ST3 receptor-fused TAS2R8 expressed in HEK293T cells co-expressing Galpha16gust44 assessed as effect on chloramphenicol-induced intracellular calcium level at 100 uM by FLIPR assay
T6 sequence (whole entry): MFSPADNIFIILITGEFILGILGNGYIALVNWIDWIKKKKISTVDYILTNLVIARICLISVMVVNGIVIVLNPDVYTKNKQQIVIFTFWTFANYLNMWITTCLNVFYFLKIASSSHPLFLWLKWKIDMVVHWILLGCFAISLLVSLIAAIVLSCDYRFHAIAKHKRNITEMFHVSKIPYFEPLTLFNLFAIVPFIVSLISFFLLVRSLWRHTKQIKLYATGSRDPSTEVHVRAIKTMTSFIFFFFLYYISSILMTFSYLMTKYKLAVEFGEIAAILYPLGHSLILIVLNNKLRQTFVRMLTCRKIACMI

[8] = biological target: T7, Taste receptor type 2 member 46 (Homo sapiens) (UniProt P59540); assay: Agonist activity at recombinant human N-terminal rat ST3 receptor-fused TAS2R46 expressed in HEK293T cells co-expressing Galpha16gust44 assessed as effect on intracellular calcium level at 100 uM by FLIPR assay
T7 sequence (whole entry): T4 sequence (P59540 whole entry)

Compound | Activity [1] | Activity [2] | Activity [3] | IC50 [4] [µM] | Activity [5] | Activity [6] | Activity [7] | Activity [8]
C/C1=C\C[C@H](O)/C(C)=C/[C@H]2OC(=O)[C@@H](C)C2CC1 (stereo partly specified) | inactive | Active | Active | 15.3 | inactive | inactive | inactive | inactive
C/C1=C\C[C@H](O)[C@@H](C)C[C@H]2OC(=O)[C@@H](C)C2CC1 (stereo partly specified) | inactive | Active | Active | 84.9 | inactive | inactive | inactive | Active
